ChEMBL document CHEMBL1155245, “Diazen-1-ium-1,2-diolated nitric oxide donor ester prodrugs of 5-(4-carboxymethylphenyl)-1-(4-methanesulfonylphenyl)-3-trifluoromethyl-1H-pyrazole and its aminosulfonyl analog: Synthesis, biological evaluation and nitric oxide release studies” (Bioorg Med Chem, 2009)
pIC50: −log10 of the molar value.

Legend:
[1] = Induction of nitric oxide release in phosphate buffer at pH 7.4; format: physicochemical
Serum = experiment: Induction of nitric oxide release in rat serum containing phosphate buffer at pH 7.4; format: functional; parameters: concentration or dose not given beside the values
Rattus norvegicus [2] = species: Rattus norvegicus; experiment: animal or person; format: functional; settings: 3 h
[3] = target: T1, Prostaglandin G/H synthase 1 (Ovis aries, UniProt P05979)
T1 sequence (P05979 whole entry): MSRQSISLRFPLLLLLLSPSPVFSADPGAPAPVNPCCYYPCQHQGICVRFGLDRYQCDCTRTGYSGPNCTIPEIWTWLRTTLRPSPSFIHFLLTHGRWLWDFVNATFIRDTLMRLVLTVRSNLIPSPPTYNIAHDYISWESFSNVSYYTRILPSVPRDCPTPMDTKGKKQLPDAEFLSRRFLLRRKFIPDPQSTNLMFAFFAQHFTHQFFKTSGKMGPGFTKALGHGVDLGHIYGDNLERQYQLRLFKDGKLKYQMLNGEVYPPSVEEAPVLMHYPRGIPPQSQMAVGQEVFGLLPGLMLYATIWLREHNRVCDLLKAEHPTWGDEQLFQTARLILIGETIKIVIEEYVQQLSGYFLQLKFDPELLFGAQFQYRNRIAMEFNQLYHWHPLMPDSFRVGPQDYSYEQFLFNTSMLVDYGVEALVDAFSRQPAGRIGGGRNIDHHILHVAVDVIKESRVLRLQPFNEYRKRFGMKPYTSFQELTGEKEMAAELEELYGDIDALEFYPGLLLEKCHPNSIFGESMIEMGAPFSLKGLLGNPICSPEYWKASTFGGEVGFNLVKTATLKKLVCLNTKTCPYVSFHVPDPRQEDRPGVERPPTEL
Description: Inhibition of ovine COX1 by enzyme immunoassay

Rattus norvegicus [4] = experiment: Antiinflammatory activity in po dosed rat assessed as inhibition of carrageenan-induced paw edema after 3 hrs; format: functional
[5] = Selectivity ratio of IC50 for ovine COX1 to IC50 for human COX2

| Structure (SMILES) | Activity [1] [%] | Activity (Serum) [%] | inhibition in vivo at 113.8 µmol/kg (Rattus norvegicus [2]) [%] | pIC50 [3] | ED50 (Rattus norvegicus [4]) [µmol/kg] | Ratio IC50 [5] |
| --- | --- | --- | --- | --- | --- | --- |
| CC(=O)OCO/N=[N+](\[O-])N(C)CCOC(=O)Cc1ccc(-c2cc(C(F)(F)F)nn2-c2ccc(S(N)(=O)=O)cc2)cc1 | 7.2 | 74.6 | 55.8 | 4.45 | – | – |
| CC(=O)Oc1ccccc1C(=O)O [ASPIRIN] | – | – | – | – | 714 | – |
| NS(=O)(=O)c1ccc(-n2nc(C(F)(F)F)cc2-c2ccc(CC(=O)O)cc2)cc1 | – | – | 50 | 5.09 | 114 | – |
| [O-]/[N+](=N\O)N1CCC[C@H]1CO | 84.5 | 85 | – | – | – | – |
| CC(=O)OCO/N=[N+](\[O-])N1CCC[C@H]1COC(=O)Cc1ccc(-c2cc(C(F)(F)F)nn2-c2ccc(S(C)(=O)=O)cc2)cc1 | 5 | 62.9 | – | 4.93 | – | – |
| CC(=O)OCO/N=[N+](\[O-])N(C)CCOC(=O)Cc1ccc(-c2cc(C(F)(F)F)nn2-c2ccc(S(C)(=O)=O)cc2)cc1 | 6.9 | 72.2 | – | 5.09 | – | – |
| CS(=O)(=O)c1ccc(-n2nc(C(F)(F)F)cc2-c2ccc(CC(=O)O)cc2)cc1 | – | – | – | 4.19 | 216 | – |
| CN(CCO)/[N+]([O-])=N\O | 84.5 | 84.8 | – | – | – | – |
| CC(=O)OCO/N=[N+](\[O-])N1CCC[C@H]1COC(=O)Cc1ccc(-c2cc(C(F)(F)F)nn2-c2ccc(S(N)(=O)=O)cc2)cc1 | 5.4 | 59.6 | 46.5 | 4.87 | – | 14.4 |
